Each substance was assayed on transcriptional activity of NRF2 (ARE activity) (assay: miRNA library screening using ARE-luciferase reporter system). Conditions: HeLa cells, 20 nmol/L miRNA, 48 hours after transfection, luciferase activity per living cell.
Format: cell-based, human
Protocol: The luciferase reporter plasmid was prepared by inserting a human NQO-1 promoter region 5′-[…]-3′ (SEQ ID NO: 19) including an antioxidant response element (ARE) into an Mlu1/Xho1 site in pGL3 vector (Promega). Specifically, a pair of synthetic oligonucleotides complementary with each other shown in Table 2 (upper; SEQ ID NO: 20, lower; SEQ ID NO: 21) were annealed, to thereby form a double-stranded DNA, and a double-stranded DNA having cohesive ends complementary to the Mlu1/Xho1 site was prepared by use of Mlu1 and Xho1. The thus-produced double-stranded DNA fragment was inserted into the Mlu1/Xho1 site, to thereby yield a recombinant pGL3 (reporter plasmid) of interest.
Firstly, the reporter plasmid was transiently transfected into HeLa cells (1×10^7 cells/dish) in a 10 cm dish. 24 hours after transfection, the cells (1×10^4 cells/well) were seeded on a 96-well plate, and the next day, 20 nmol/L of each of the 470 double-stranded RNA fragments, derived from Pre-miRNA precursor library-Human V3 (Ambion) or control miRNA was transfected. After two days, firefly luciferase activity was measured by means of a microplate reader (ARVOmx; Perkinelmer) using Bright-Glo Luciferase Assay System (Promega). At the same time, living cells were detected through CV staining assay. ARE activity was calculated from the luciferase activity per living cell.
For the screening of 470 double-stranded RNAs, HeLa cells were sequentially transfected with each miRNA together with the reporter plasmid, and then the ARE activity in each transfected cell was calculated as the luciferase activity per living cell, as measured by the crystal violet (CV) staining assay. Briefly, the ARE-luciferase reporter plasmid and each miRNA from the library were sequentially transfected into HeLa cells, and after 48 hours, luciferase activity or the number of living cells was measured using the Bright-GIo Luciferase Assay System or crystal violet (CV) staining assay, respectively. The ARE activity for each miRNA-transfected cell was calculated as the luciferase activity per living cell.
The ARE activity relative to that in control-miRNA-transfected cells is indicated on the vertical axis. Eight miRNAs with a relative ratio of 0.5 or less were identified as candidates by this screening system. Also, eight miRNAs with a relative ratio of 1.5 or more were similarly identified as candidates by this screening system.

ARE activity relative to that in control-miRNA-transfected cells (relative ratio), large decrease:
hsa-miR-153: low-value miRNA from Pre-miRNA precursor library; mature sequence UUGCAUAGUCACAAAAGUGAUC, SEQ ID NO: 7 (listed as RNA, chemistry not given here; listed as Homo sapiens)
hsa-miR-337: low-value miRNA from Pre-miRNA precursor library; mature sequence GAACGGCUUCAUACAGGAGUU, SEQ ID NO: 6 (listed as RNA, chemistry not given here; listed as Homo sapiens)
hsa-miR-556: low-value miRNA from Pre-miRNA precursor library; mature sequence GAUGAGCUCAUUGUAAUAUGAG, SEQ ID NO: 8 (listed as RNA, chemistry not given here; listed as Homo sapiens)
hsa-miR-639: low-value miRNA from Pre-miRNA precursor library; mature sequence AUCGCUGCGGUUGCGAGCGCUGU, SEQ ID NO: 5 (listed as RNA, chemistry not given here; listed as Homo sapiens)

Source: patent publication US10876115B2, “Method for assaying MicroRNA, cancer therapeutic agent, and medical composition containing same for cancer therapy” (National University Corporation Tokyo Medical and Dental …, priority 2013, dated 2020)
